Read-outs that look alike come from different tables or passages of the source.
What was measured:
HDM2-p53 signaling axis = experiment: Whole cell lysate Western blots of MCF7 cells (HDM2, p53, p21); format: cell-based
[1] = system: Ewing Sarcoma, AML, multiple myeloma and rhabdoid cell lines; experiment: Cell viability (CellTiter-Glo) in individual cell line panels; format: cell-based
Experimental: Cells were plated in 384-well culture-treated plates and allowed to settle overnight. After drug treament and appropriate incubation time, cell viability was assessed using the CellTiter-Glo Luminescent Cell Viability Assay (Promega). Luminescence was read on a Fluostar Omega Reader (BMG Labtech).

full-length USP7 = target: T1, full-length USP7 (Homo sapiens, UniProt Q93009); experiment: Ub-AMC enzymatic assay, full-length USP7, 6 h pre-incubation; format: biochemical
T1 construct: The constructs encoding USP7 full length (amino acids 1–1102) and catalytic domain (208–560); inferred from Ni-NTA purification; made in house; host or cells: E. coli BL21 (DE3)
Experimental: (§1) Full length USP7 was tested for its activity in Ubiquitin-AMC assay in presence or absence of inhibitors. USP7 (5 nM) was pre-incubated for 6 hours at room temperature with different concentrations of inhibitors or DMSO as a control in 50 mM HEPES pH 7.5, 0.5 mM EDTA, 11 uM ovalbumin, and 5 mM DTT. Ubiquitin-AMC (Boston Biochem) was then added to a final concentration of 500 nM. The initial rate of the reaction was measured by collecting fluorescence data at one minute intervals over 30-minute period using a Clariostar fluorescence plate reader at excitation and emission wavelength of 345 and 445 nm respectively. The calculated initial rate values were plotted against inhibitor concentrations to determine IC50s. All the experimental data were plotted using Prism GraphPad. All assays for each compound were performed at least twice for each compound.

USP7 catalytic domain = target: T2, USP7 catalytic domain (Homo sapiens, UniProt Q93009); experiment: Intact MS / CE-MS labeling of purified USP7 catalytic domain; format: binding; details: 2.5-fold molar excess compound
T2 construct: catalytic domain (208–560) used were cloned as described; inferred from Ni-NTA purification; made in house; host or cells: E. coli BL21 (DE3)
Experimental: Purified USP7 catalytic domain was diluted to 20 μM in 10 μL labeling buffer (20 mM HEPES pH 7.5, 150 mM NaCl, 1 mM TCEP) and incubated for the indicated times with 50 μM (2.5×) compound. After incubation, samples were flash frozen in liquid nitrogen and stored at −80 °C until analysis.
Intact mass analysis was performed by injecting 5 µg USP7 catalytic domain onto a self-packed reversed phase column (1/32” O.D. × 500 um I.D., 5 cm of POROS 10R2 resin). After desalting, protein was eluted with an HPLC gradient (0–100% B in 4 minutes, A = 0.2 M acetic acid in water, B = 0.2 M acetic acid in acetonitrile, flow rate ~30 µL/min) into an LTQ ion trap mass spectrometer (ThermoFisher Scientific, San Jose, CA). Mass spectra were processed using MagTran1.03b2[52].
Peptides were desalted using SP3[53], dried by vacuum centrifugation, and reconstituted in 1% formic acid/50% acetonitrile with 100 mM ammonium acetate. Peptides were then analyzed by CE-MS using a ZipChip CE system and autosampler (908 Devices, Boston, MA) interfaced to a QExactive HF mass spectrometer (ThermoFisher Scientific, San Jose, CA). Peptide solution was loaded for 30 seconds, and the mass spectrometer was operated in data dependent mode and subjected the 5 most abundant ions in each MS scan (60k resolution, 3E6 target, lock mass enabled) to MS/MS (15k resolution, 1E5 target, 100 ms max inject time). […]

p53 target genes = experiment: Quantitative real-time PCR of p53 target genes in MCF7 cells; format: cell-based; details: 1 μM, 24 hours
Experimental: After cell treatment under the indicated conditions, total cellular RNA was purified using a Qiagen RNEasy kit. 1 μg of RNA was then converted to cDNA using SuperScript III First-Strand Synthesis (Invitrogen). cDNA from each sample was then combined with the indicated TaqMan probe and 2x MasterMix in a 96-well Fast RT-PCR plate (Invitrogen). qPCR was performed on an Invitrogen 7500 Fast qPCR instrument and gene expression was calculated using the 2^-∆∆Ct method on Graphpad Prism.

USP7-Q351S = target: T3, USP7-Q351S (Homo sapiens, UniProt Q93009, Q351S); experiment: Ub-AMC enzymatic assay, USP7-Q351S mutant; format: biochemical; details: 6-hr pre-incubation
T3 construct: made in house
Experimental: as §1

T1 sequence (Q93009 whole entry, the tested form may be a part): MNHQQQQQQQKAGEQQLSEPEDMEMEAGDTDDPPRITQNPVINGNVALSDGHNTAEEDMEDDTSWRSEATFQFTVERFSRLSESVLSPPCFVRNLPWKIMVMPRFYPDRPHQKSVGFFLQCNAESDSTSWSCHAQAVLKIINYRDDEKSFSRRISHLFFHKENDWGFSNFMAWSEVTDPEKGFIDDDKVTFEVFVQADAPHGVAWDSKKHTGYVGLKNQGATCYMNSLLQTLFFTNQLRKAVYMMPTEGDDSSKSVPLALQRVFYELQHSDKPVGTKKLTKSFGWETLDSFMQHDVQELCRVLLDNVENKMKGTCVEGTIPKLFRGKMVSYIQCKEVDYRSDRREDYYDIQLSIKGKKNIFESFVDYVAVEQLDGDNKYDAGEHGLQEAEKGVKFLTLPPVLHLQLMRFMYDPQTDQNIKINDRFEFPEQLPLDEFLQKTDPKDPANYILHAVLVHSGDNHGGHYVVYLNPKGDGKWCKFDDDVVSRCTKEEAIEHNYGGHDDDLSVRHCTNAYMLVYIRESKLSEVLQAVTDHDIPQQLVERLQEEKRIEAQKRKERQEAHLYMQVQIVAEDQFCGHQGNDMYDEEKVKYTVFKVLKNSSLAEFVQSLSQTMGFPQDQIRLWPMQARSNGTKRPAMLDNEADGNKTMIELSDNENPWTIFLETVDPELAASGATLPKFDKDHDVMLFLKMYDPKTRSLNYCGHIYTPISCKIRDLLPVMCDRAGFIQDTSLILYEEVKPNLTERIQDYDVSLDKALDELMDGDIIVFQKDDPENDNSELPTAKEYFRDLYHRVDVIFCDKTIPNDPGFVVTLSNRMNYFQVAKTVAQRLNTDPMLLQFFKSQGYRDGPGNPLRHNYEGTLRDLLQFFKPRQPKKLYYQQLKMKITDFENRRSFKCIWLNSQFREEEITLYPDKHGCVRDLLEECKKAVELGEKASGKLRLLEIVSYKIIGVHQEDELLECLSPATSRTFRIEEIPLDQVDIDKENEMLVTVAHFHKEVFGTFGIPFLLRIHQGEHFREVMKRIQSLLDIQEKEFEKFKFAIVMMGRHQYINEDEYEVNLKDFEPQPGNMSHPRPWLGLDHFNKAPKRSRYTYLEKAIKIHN
T2 sequence (Q93009 208-560): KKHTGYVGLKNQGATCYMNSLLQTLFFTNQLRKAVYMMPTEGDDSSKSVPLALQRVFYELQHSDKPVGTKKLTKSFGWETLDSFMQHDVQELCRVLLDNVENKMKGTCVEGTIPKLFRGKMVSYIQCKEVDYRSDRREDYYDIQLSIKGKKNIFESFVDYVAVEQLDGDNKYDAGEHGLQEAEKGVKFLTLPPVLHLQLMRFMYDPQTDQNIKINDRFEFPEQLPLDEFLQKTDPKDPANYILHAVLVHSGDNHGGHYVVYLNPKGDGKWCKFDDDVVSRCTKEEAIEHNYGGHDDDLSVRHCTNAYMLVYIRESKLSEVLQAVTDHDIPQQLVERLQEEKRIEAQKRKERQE
T3 sequence (Q93009 whole entry Q351S): as the sequence (Q93009 whole entry, the tested form may be a part) above, with Q351S counted along it

With CN1CCN(CCC(=O)Nc2ccc3c(=O)n(CC4(O)CCN(C(=O)[C@H](CCCNC(=O)c5ccc6c(Cl)c7c(nc6c5)CCCC7)Cc5ccccc5)CC4)cnc3c2)CC1 [XL177B] the “effects on HDM2-p53 signaling and cell cycle” value (HDM2-p53 signaling axis; negative control) was “did not exert any of the same effects except at 10 μM”, the “less potent than XL177A in the cell lines tested” value [1] was ~ 100 fold and the IC50 (full-length USP7; Ub-AMC, 6-hour pre-treatment, read-out: IC50) was 340 nM.

CN1CCN(CCC(=O)Nc2ccc3c(=O)n(CC4(O)CCN(C(=O)[C@@H](CCCNC(=O)c5ccc6c(Cl)c7c(nc6c5)CCCC7)Cc5ccccc5)CC4)cnc3c2)CC1 [XL177A] was tested, and the “p53 and p21 protein levels” value (HDM2-p53 signaling axis) was “increases in p53 and downstream p21 protein levels”, the “time to degradation of HDM2” value (HDM2-p53 signaling axis) was ≤ 2 h and the “labeling of USP7 catalytic domain by MS” value (USP7 catalytic domain) was “Quantitative labeling”. For the same compound, the “transcription of p53 target genes (CDKN1A, GADD45A, BAX, DDB2)” value (p53 target genes) was “stimulating transcription of p53 target genes”, the “TP53-WT cell lines sensitive” value [1] was 9 out of 10 and the “TP53-mutant cell lines sensitive” value [1] was 1 out of 17. For the same compound, the IC50 (USP7-Q351S) was 189 nM and the IC50 (full-length USP7; read-out: potency as irreversible inhibitor of USP7) was 0.34 nM.

Source: paper PMC7093416, “Selective USP7 inhibition elicits cancer cell killing through a p53-dependent mechanism” (Scientific Reports, 2020)
